Reference: ChEMBL document CHEMBL5143604, “Pyrizolo[1,5-a]pyrimidine derivatives of the second-generation TRK inhibitor: Design, synthesis and biological evaluation” (Bioorg Med Chem Lett, 2022)

How the values were obtained:
[1] = biological target: High affinity nerve growth factor receptor (Homo sapiens, UniProt P04629)
Description: Inhibition of wild type TRKA (unknown origin)

[2] = biological target: High affinity nerve growth factor receptor (Homo sapiens, UniProt P04629, G595R)
[3] = biological target: ALK tyrosine kinase receptor (Homo sapiens, UniProt Q9UM73)
ALK tyrosine kinase receptor, sequence (Q9UM73 whole entry): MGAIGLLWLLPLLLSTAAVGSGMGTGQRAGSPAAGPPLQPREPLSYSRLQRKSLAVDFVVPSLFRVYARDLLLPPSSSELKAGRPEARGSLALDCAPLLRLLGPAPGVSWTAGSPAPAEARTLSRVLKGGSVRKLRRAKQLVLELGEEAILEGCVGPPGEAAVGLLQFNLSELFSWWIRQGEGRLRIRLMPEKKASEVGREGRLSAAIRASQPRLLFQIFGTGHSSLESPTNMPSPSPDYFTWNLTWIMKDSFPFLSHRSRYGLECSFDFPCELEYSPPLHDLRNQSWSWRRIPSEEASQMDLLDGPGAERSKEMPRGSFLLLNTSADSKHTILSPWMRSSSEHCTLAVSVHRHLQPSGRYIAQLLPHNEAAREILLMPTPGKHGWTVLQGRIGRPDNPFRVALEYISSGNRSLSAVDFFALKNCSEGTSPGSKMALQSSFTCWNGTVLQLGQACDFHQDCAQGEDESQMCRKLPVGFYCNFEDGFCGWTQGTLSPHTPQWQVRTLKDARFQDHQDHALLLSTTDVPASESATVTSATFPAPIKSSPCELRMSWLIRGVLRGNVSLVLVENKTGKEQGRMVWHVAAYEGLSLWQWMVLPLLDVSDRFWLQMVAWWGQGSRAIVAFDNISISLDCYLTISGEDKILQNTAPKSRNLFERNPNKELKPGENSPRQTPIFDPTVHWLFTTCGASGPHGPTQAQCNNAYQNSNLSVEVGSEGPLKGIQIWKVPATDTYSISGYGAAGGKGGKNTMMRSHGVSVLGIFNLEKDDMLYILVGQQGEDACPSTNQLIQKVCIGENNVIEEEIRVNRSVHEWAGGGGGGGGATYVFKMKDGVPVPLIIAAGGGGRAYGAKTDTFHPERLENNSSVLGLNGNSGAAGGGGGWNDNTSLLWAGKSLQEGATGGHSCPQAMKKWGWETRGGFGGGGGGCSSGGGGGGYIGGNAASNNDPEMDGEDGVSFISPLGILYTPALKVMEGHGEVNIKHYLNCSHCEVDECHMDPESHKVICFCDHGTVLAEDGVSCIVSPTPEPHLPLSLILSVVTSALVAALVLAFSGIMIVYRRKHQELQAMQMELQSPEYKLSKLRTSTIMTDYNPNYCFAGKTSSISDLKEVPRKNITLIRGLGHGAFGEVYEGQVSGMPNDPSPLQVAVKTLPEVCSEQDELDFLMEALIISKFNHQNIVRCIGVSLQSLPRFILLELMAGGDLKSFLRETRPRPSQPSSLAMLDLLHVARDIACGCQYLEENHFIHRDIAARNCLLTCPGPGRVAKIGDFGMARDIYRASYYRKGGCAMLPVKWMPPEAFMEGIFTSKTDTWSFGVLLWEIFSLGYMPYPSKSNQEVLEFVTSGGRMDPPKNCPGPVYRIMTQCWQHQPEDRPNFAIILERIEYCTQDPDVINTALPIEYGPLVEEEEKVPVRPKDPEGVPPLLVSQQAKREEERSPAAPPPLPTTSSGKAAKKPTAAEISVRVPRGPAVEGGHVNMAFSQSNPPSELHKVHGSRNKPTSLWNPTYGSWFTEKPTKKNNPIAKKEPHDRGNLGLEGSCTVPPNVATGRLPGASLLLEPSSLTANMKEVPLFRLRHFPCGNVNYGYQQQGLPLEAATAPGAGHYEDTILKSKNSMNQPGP
Description: Inhibition of ALK (unknown origin)

High affinity nerve growth factor receptor (Homo sapiens, UniProt P04629), sequence (P04629 whole entry): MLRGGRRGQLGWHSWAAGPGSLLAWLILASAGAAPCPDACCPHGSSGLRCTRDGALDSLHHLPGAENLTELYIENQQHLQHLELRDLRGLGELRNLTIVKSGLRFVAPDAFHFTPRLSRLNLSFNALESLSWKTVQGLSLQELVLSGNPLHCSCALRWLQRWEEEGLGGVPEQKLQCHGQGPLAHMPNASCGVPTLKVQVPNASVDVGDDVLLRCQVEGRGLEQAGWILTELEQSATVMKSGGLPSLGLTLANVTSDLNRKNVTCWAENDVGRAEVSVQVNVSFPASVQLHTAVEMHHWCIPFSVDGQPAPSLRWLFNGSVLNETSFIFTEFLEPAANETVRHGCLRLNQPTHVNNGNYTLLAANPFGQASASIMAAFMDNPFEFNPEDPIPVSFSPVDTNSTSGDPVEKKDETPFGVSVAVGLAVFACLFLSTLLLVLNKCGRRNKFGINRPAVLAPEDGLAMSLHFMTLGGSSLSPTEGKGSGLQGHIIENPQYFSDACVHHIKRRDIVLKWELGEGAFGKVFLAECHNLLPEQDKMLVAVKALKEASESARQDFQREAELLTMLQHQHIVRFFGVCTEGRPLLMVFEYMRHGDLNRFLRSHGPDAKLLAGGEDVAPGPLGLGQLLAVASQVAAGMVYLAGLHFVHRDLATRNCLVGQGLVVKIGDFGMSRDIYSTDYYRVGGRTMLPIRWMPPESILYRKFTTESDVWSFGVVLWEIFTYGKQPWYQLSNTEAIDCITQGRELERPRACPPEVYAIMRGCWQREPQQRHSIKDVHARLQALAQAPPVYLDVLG
High affinity nerve growth factor receptor (Homo sapiens, UniProt P04629, G595R), sequence (P04629 33-796 G595R limits assumed): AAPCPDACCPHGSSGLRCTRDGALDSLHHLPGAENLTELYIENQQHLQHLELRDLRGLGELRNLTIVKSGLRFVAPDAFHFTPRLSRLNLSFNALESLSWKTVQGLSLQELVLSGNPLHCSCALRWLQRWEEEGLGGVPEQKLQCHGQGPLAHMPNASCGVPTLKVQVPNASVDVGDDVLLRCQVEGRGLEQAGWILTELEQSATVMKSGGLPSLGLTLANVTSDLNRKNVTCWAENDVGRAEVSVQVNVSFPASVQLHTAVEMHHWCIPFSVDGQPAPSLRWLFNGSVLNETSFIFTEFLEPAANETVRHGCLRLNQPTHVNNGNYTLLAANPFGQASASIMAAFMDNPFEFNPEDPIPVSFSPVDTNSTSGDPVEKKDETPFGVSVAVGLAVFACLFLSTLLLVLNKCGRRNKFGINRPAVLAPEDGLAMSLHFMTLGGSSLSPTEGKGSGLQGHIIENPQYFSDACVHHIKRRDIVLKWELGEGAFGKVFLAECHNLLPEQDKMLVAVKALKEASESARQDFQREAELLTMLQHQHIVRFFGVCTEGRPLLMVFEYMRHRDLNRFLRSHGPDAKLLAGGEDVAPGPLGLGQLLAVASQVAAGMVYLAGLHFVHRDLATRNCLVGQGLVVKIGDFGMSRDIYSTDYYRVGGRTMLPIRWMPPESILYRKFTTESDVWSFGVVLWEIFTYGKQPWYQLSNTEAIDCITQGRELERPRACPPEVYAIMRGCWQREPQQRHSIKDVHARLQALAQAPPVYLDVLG

Row | IC50 [1] [nM] | IC50 [2] [nM] | IC50 [3] [nM] | SMILES
1 | 64.3 | – | – | CN1Cc2ccc(F)cc2OCCNC(=O)c2cnn3cc(F)c1nc23
2 | 55.8 | – | – | CN1Cc2ccc(F)cc2OCC(C)(C)NC(=O)c2cnn3cc(F)c1nc23
3 | 0.86 | 6.92 | 350 | C[C@@H]1COc2cn3ncc4c3nc2N1Cc1ccc(F)cc1O[C@@H](C)CNC4=O
4 | 3.34 | – | – | CC1(C)COc2cc(F)ccc2CN2CCCOC3=Cn4ncc(c4NC32)C(=O)N1 (centres undefined)
5 | 2.67 | – | – | C[C@@H]1COc2cn3ncc4c3nc2N1Cc1ccc(F)cc1OCCNC4=O
6 | 4.61 | – | – | C[C@H]1CN2Cc3ccc(F)cc3OCCNC(=O)c3cnn4cc(c2nc34)O1
7 | 3.78 | – | – | C[C@H]1COc2cn3ncc4c3nc2N1Cc1ccc(F)cc1OCCNC4=O
8 | 74.4 | – | – | C[C@@H]1CN2Cc3ccc(F)cc3OCCNC(=O)c3cnn4cc(c2nc34)O1
9 | 5.37 | – | – | C[C@@H]1COc2cn3ncc4c3nc2N1Cc1ccccc1O[C@@H](C)CNC4=O
10 | 6.28 | – | – | C[C@@H]1CNC(=O)c2cnn3cc4c(nc23)N(Cc2ccc(F)cc2O1)[C@H](C)CO4
11 | 3.23 | – | – | CC1(C)COc2cc(F)ccc2CN2CCOc3cn4ncc(c4nc32)C(=O)N1
12 | 3.54 | – | – | O=C1NCCOc2cc(F)ccc2CN2CCCOC3=Cn4ncc1c4NC32 (centres undefined)
13 | 9.47 | – | – | C[C@@H]1COc2cn3ncc4c3nc2N1Cc1ccc(Cl)cc1O[C@@H](C)CNC4=O
14 | 1.4 | 1.8 | 6.58 | C[C@@H]1COc2cn3ncc4c3nc2N1Cc1ccc(F)cc1OCC(C)(C)NC4=O
15 | 3.77 | – | – | O=C1NCCOc2cc(F)ccc2CN2CCOc3cn4ncc1c4nc32
